# From patent publication US20040171566A1, “Antisense modulation of p38 mitogen activated protein kinase expression” (priority 1999, published 2004)
# In the oligonucleotide strings, read from the 5' end, every base follows the letter of its sugar. An asterisk marks phosphorothioate; unmarked linkages are phosphodiester. Other units and linkages are bracketed, terminal groups are in braces. A string of capitals states the bases alone. e = 2'-O-(2-methoxyethyl) (MOE); [5mC] = 5-methylcytosine; d = 2'-deoxy (DNA)
# Assays:
# human p38α mRNA [1] = test: Human p38α mRNA expression in T-24 cells; conditions: for % P38α mRNA EXPRESSION: initial screen of human p38α oligonucleotides
# human p38β mRNA = test: Human p38β mRNA expression in T-24 cells; conditions: for % P38β mRNA EXPRESSION: initial screen of human p38α oligonucleotides
# human p38α mRNA [2] = test: Inhibition of human p38α mRNA expression in Jurkat cells, Northern blot; format: cell-based; conditions: Jurkat cells electroporated with 10 μM oligonucleotide; Northern blot
# Experimental: The human Jurkat T-cell line (American Type Culture Collection, Manassas, Va.) was maintained in RPMI 1640 growth media supplemented with 10% fetal bovine serum (FBS; Hyclone, Logan, Utah). HUVEC cells (Clonetics, San Diego, Calif.) were cultivated in endothelial basal media supplemented with 10% FBS (Hyclone, Logan, Utah).
# Jurkat cells were grown to approximately 75% confluency and resuspended in culture media at a density of 1×10^7 cells/ml. A total of 3.6×10^6 cells were employed for each treatment by combining 360 μl of cell suspension with oligonucleotide at the indicated concentrations to reach a final volume of 400 μl. Cells were then transferred to an electroporation cuvette and electroporated using an Electrocell Manipulator 600 instrument (Biotechnologies and Experimental Research, Inc.) employing 150 V, 1000 μF, at 13 Ω. Electroporated cells were then transferred to conical tubes containing 5 ml of culture media, mixed by inversion, and plated onto 10 cm culture dishes.
# Total mRNA was isolated using the RNEASY7 Mini Kit (Qiagen, Valencia, Calif.; similar kits from other manufacturers may also be used), separated on a 1% agarose gel, transferred to HYBOND™-N+ membrane (Amersham Pharmacia Biotech, Piscataway, N.J.), a positively charged nylon membrane, and probed. p38 MAPK probes were made using the Prime-A-Gene7 kit (Promega Corporation, Madison, Wis.), a random primer labeling kit, using mouse p38α or p38β cDNA as a template. A glyceraldehyde 3-phosphate dehydrogenase (G3PDH) probe was purchased from Clontech (Palo Alto, Calif.), Catalog Number 9805-1. The fragments were purified from low-melting temperature agarose, as described in Maniatis, T., et al., Molecular Cloning: A Laboratory Manual, 1989. The G3PDH probe was labeled with REDIVUE™ ^32P-dCTP (Amersham Pharmacia Biotech, Piscataway, N.J.) and Strip-EZ labelling kit (Ambion, Austin, Tex.). mRNA was quantitated by a PhosphoImager (Molecular Dynamics, Sunnyvale, Calif.).
# Jurkat cells were grown and treated as described above except the concentration of oligonucleotide was varied as indicated in Table 3. […] Maximum inhibition was approximately 70% with 16500 (SEQ ID NO 17).
# [3] = initial screen of human p38β oligonucleotides
Sequence,% mRNA EXPRESSION (human p38α mRNA [2]) [%],% P38α mRNA EXPRESSION (human p38α mRNA [1]) [%],% P38β mRNA EXPRESSION (human p38β mRNA) [%],also measured
CACCGCCACCTTCTGGCGCA (antisense e[5mC]eAe[5mC]e[5mC]eG*d[5mC]*d[5mC]*dA*d[5mC]*d[5mC]*dT*dT*d[5mC]*dT*dG*eGe[5mC]eGe[5mC]eA) [ISIS 107870],,,,% p38α mRNA EXPRESSION (human p38α mRNA [1]; [3]): 97%; % p38β mRNA Expression (human p38β mRNA; [3]): 74%
CTGCCGGTAGAACGTGGGCC (antisense e[5mC]*eT*eG*e[5mC]*e[5mC]*eG*dG*dT*dA*dG*dA*dA*dC*dG*eT*eG*eG*eG*e[5mC]*e[5mC]) [ISIS 16495],72,,,% mRNA Inhibition (human p38α mRNA [2]): 28%
TCCTGAGACATTTTCCAGCG (antisense eT*e[5mC]*e[5mC]*eT*eG*eA*dG*dA*dC*dA*dT*dT*dT*dT*e[5mC]*e[5mC]*eA*eG*e[5mC]*eG) [ISIS 16494],72,,,% mRNA Inhibition (human p38α mRNA [2]): 28%
TAAGGAGGTCCCTGCTTTCA (antisense eT*eA*eA*eG*eG*eA*dG*dG*dT*dC*dC*dC*dT*dG*e[5mC]*eT*eT*eT*e[5mC]*eA) [ISIS 16499],74,,,% mRNA Inhibition (human p38α mRNA [2]): 26%
TGGCAGCAAAGTGCTGCTGG (eT*eG*eG*e[5mC]*eA*eG*dC*dA*dA*dA*dG*dT*dG*dC*eT*eG*e[5mC]*eT*eG*eG; antisense) [ISIS 16488],157,,,
CAGAGAGCCTCCTGGGAGGG (antisense e[5mC]*eA*eG*eA*eG*eA*dG*dC*dC*dT*dC*dC*dT*dG*eG*eG*eA*eG*eG*eG) [ISIS 16489],149,,,
GCAACAAGAGGCACTTGAAT (eG*e[5mC]*eA*eA*e[5mC]*dA*dA*dG*dA*dG*dG*d[5mC]*dA*d[5mC]*dT*eT*eG*eA*eA*eT; antisense) [ISIS 100877],,47,95,
"GGCACAAAGCTGATGACTTC (chimeric deoxy gapped, phosphorothioate, further chemistry not given here) [ISIS 100875]",,39,90,% p38α mRNA EXPRESSION (human p38α mRNA [1]; dose 50 nM): 30%; % p38α mRNA EXPRESSION (human p38α mRNA [1]; dose 100 nM): 13%; % p38α mRNA EXPRESSION (human p38α mRNA [1]; dose 200 nM): 8%
GAAGTGGGATCAACAGAACA (eG*eA*eA*eG*eT*eG*dG*dG*dA*dT*dC*dA*dA*dC*eA*eG*eA*eA*e[5mC]*eA; antisense) [ISIS 16501],77,,,% mRNA Inhibition (human p38α mRNA [2]): 23%
CGGACCAGATATCCACTGTT (antisense e[5mC]eGeGeAe[5mC]*d[5mC]*dA*dG*dA*dT*dA*dT*d[5mC]*d[5mC]*dA*e[5mC]eTeGeTeT) [ISIS 107877],,,,"% p38β mRNA Expression (human p38β mRNA; dose 50 nM, relative to control oligonucleotide = 100%): 50%; % p38β mRNA Expression (human p38β mRNA; dose 100 nM, relative to control oligonucleotide = 100%): 34%; % p38β mRNA Expression (human p38β mRNA; dose 200 nM, relative to control oligonucleotide = 100%): 22%"
"CTCACAGTCTTCATTCACAG (chimeric deoxy gapped, phosphorothioate, further chemistry not given here) [ISIS 100867]",,58,33,
"CATCATCAGGATCGTGGTAC (chimeric deoxy gapped, phosphorothioate, further chemistry not given here) [ISIS 100873]",,34,70,% p38α mRNA EXPRESSION (human p38α mRNA [1]; dose 50 nM): 19%; % p38α mRNA EXPRESSION (human p38α mRNA [1]; dose 100 nM): 12%; % p38α mRNA EXPRESSION (human p38α mRNA [1]; dose 200 nM): 8%
ACAGACGGAGCCGTAGGCGC (antisense eAe[5mC]eAeGeA*d[5mC]*dG*dG*dA*dG*d[5mC]*d[5mC]*dG*dT*dA*eGeGe[5mC]eGe[5mC]) [ISIS 107869],,,,% p38α mRNA EXPRESSION (human p38α mRNA [1]; [3]): 93%; % p38β mRNA Expression (human p38β mRNA; [3]): 60%
TGAATGTATATACTTTAGAC (eT*eG*eA*eA*eT*dG*dT*dA*dT*dA*dT*dA*d[5mC]*dT*dT*eT*eA*eG*eA*e[5mC]; antisense) [ISIS 100866],,55,65,
CAGCCGCGGGACCAGCGGCG (antisense e[5mC]*eA*eG*e[5mC]*e[5mC]*eG*dC*dG*dG*dG*dA*dC*dC*dA*eG*e[5mC]*eG*eG*e[5mC]*eG) [ISIS 16492],125,,,
